Data: ChEMBL document CHEMBL1909499, “Protective effects of amentoflavone on Lamin A-dependent UVB-induced nuclear aberration in normal human fibroblasts” (Bioorg Med Chem Lett, 2011)
Calls of active or inactive are those of the source. No cut-off for these calls is given here.

What was measured:
[1] = system: Fibroblast; test: Antiaging activity in human fibroblasts assessed as reduction of UVB-induced nucleus deformation after 6 days by confocal microscopy analysis; format: functional, cell-based
[2] = system: Fibroblast; test: Antiaging activity in human fibroblasts assessed as reduction in UVB-induced phospho-H2AX protein level after 6 days by Western blotting method; format: functional, cell-based
[3] = Cytotoxicity against human UVB-induced fibroblasts assessed as cell viability; format: cell-based; settings: fibroblast
[4] = system: Fibroblast; test: Antiaging activity in fibroblasts isolated from human assessed as reduction in UVB-induced phospho-H2AX protein level after 6 days by Western blotting method; format: functional, cell-based
[5] = system: Fibroblast; test: Antiaging activity in human fibroblasts assessed as reduction in UVB-induced phospho-H2AX protein level after 6 days by confocal microscopy analysis; format: functional, cell-based
[6] = system: Fibroblast; test: Antiaging activity in human fibroblasts assessed as reduction in UVB-induced lamin A protein level after 6 days by Western blot method; format: functional, cell-based

In the case of `O=c1cc(-c2ccc(O)c(-c3c(O)cc(O)c4c(=O)cc(-c5ccc(O)cc5)oc34)c2)oc2cc(O)cc(O)c12` [AMENTOFLAVONE], the Activity [1] is reported as “Active”, the Activity [2] is reported as “Dose-dependent effect” and the Activity [3] is reported as “Non-toxic”. The Activity [4] was “Dose-dependent effect”, the Activity [5] was “Active” and the Activity [6] was “Dose-dependent effect”.
